≈ marks a conversion by molar mass, not a printed value. Non-standard residues stand in square brackets, D forms with d. Residues, ends and D or L forms follow the SMILES beside them. Nspe = C[C@H](NCC(=O)O)c1ccccc1; NDecylGly = CCCCCCCCCCNCC(=O)O; Nlys = NCCCCNCC(=O)O
Assays:
S. aureus biofilm = experiment: Minimal biofilm inhibition; assay type: cell-based, Staphylococcus aureus; details: 1.56 μg/mL peptoid, relative to PBS, n = 3
[1] = test system: S. aureus pre-formed biofilm; experiment: Minimal biofilm eradication; assay type: cell-based, Staphylococcus aureus; details: 12.5 μg/ml peptoid (Figure 4 legend; 6.25 μg/mL), relative to PBS, n = 3
[2] = test system: P. aeruginosa LESB58 biofilm; experiment: Biofilm eradication under host-mimicking conditions, monomicrobial; assay type: cell-based, Pseudomonas aeruginosa; details: 31.25 μg/mL peptoid, DMEM-FBS-G, n = 3
[3] = test system: A. baumannii pre-formed biofilm; experiment: Minimal biofilm eradication; assay type: cell-based, Acinetobacter baumannii; details: 6.25 μg/ml peptoid, relative to PBS, n = 3
S. aureus USA300 LAC [4] = assay type: cell-based, Staphylococcus aureus; details: USA300, 16 h
[5] = In vivo toxicity / maximum tolerated dose; details: mice, Table S3
E. faecium #2-1 = assay type: cell-based, Enterococcus faecium; details: #2-1, 16 h
P. aeruginosa LESB58 = assay type: cell-based, Pseudomonas aeruginosa; details: LESB58, 16 h
[6] = Self-assembly in aqueous solution by small angle X-ray scattering; assay type: physicochemical
S. aureus USA300 LAC [7] = experiment: Subcutaneous abscess infection model; assay type: in vivo, mice; details: 1.25 mg/kg for TM8, vs PBS
E. cloacae 218R1 = assay type: cell-based, Enterobacter cloacae; details: 218R1, 16 h
K. pneumoniae biofilm = experiment: Minimal biofilm inhibition; assay type: cell-based, Klebsiella pneumoniae; details: 1.56 μg/mL peptoid, relative to PBS, n = 3
E. cloacae biofilm = experiment: Minimal biofilm inhibition; assay type: cell-based, Enterobacter cloacae; details: 1.56 μg/mL peptoid, relative to PBS, n = 3
K. pneumoniae KPLN649 = assay type: cell-based, Klebsiella pneumoniae; details: KPLN649, 16 h
A. baumannii AB5075 = assay type: cell-based, Acinetobacter baumannii; details: AB5075, 16 h
[8] = test system: K. pneumoniae pre-formed biofilm; experiment: Minimal biofilm eradication; assay type: cell-based, Klebsiella pneumoniae; details: 12.5 μg/ml peptoid (Figure 4 legend; 6.25 μg/mL), relative to PBS, n = 3
P. aeruginosa biofilm = experiment: Minimal biofilm inhibition; assay type: cell-based, Pseudomonas aeruginosa; details: 1.56 μg/mL peptoid, relative to PBS, n = 3

For `CCCCCCCCCCNCC(=O)N(CCCCN)CC(=O)N(CC(=O)N(CC(=O)N(CCCCN)CC(=O)N(CC(=O)N(CC(N)=O)[C@@H](C)c1ccccc1)[C@@H](C)c1ccccc1)[C@@H](C)c1ccccc1)[C@@H](C)c1ccccc1` [TM8] (H-[NDecylGly][Nlys][Nspe][Nspe][Nlys][Nspe][Nspe]-NH2), which “Inhibition of biofilm formation (CV staining)” value (from here on “Inhibition of biofilm formation”) (S. aureus biofilm) is on record?
Its value is “inhibited biofilm formation”.

What about the “Reduction of biomass of pre-formed biofilm (CV staining)” value [1] of the same compound?
The value was “impacted”.

What about the “Reduction of P. aeruginosa bacterial numbers in biofilm (CFU)” value [2] of the same compound?
Its value is 1,000 fold.

What about the “Reduction of biofilm metabolic activity (TTC reduction)” value [3] of the same compound?
Its value is “metabolic activity was reduced”.

And the “Minimum inhibitory concentration (MIC)” value (S. aureus USA300 LAC [4])?
The value was 3.13 µg/mL (≈ 2.81 µM).

What about the Maximum tolerated dose [5] of the same compound?
The Maximum tolerated dose was 1.25 mg/kg.

And the “Minimum inhibitory concentration (MIC)” value (E. faecium #2-1)?
The value was 0.78 µg/mL (≈ 0.699 µM).

And the “Minimum inhibitory concentration (MIC)” value (P. aeruginosa LESB58)?
Its value is 6.25 µg/mL (≈ 5.6 µM).

And the “Eccentricity (ε) of ellipsoidal micelles” value ([6]; SAXS model analysis)?
The value was 1.9.

And the “Rcore of ellipsoidal micelles” value ([6]; SAXS model analysis)?
The value was 10 Å.

And the “dR (shell) of ellipsoidal micelles” value ([6]; SAXS model analysis)?
The value was 9 Å.

And the “Aggregation number of ellipsoidal micellar assemblies” value ([6]; SAXS, on average)?
Its value is ~103 peptoids.

And the “Fraction of larger aggregates” value ([6]; SAXS, upturn at low Q, 4mM, 20°C)?
Its value is ~ 0.08%.

What about the “Self-assembled structure (SAXS best fit)” value ([6]; aqueous solution, peptoids 4mM, 20°C, theoretical model analysis) of the same compound?
Its value is “ellipsoidal micellar assemblies”.

And the “Effect on S. aureus abscess size and bacterial burden, in words” value (S. aureus USA300 LAC [7])?
Its value is “insignificantly reduced”.

What about the “Minimum inhibitory concentration (MIC)” value (E. cloacae 218R1) of the same compound?
The value was 12.5 µg/mL (≈ 11.2 µM).

And the “Inhibition of biofilm formation” value (K. pneumoniae biofilm)?
Its value is “inhibited biofilm formation”.

What about the “Inhibition of biofilm formation” value (E. cloacae biofilm) of the same compound?
The value was “inhibited biofilm formation”.

And the “Minimum inhibitory concentration (MIC)” value (K. pneumoniae KPLN649)?
Its value is 12.5 µg/mL (≈ 11.2 µM).

What about the “Minimum inhibitory concentration (MIC)” value (A. baumannii AB5075) of the same compound?
The value was 3.13 µg/mL (≈ 2.81 µM).

And the “Reduction of biomass of pre-formed biofilm (CV staining)” value [8]?
The value was “impacted”.

What about the “Inhibition of biofilm formation” value (P. aeruginosa biofilm) of the same compound?
The value was “inhibited biofilm formation”.
